Test [1] relates to CHEAL (Lambsquarters, Common). As to the kind of experiment: Preemergence herbicidal evaluation. Format: in vivo, Chenopodium album. The settings on record: rated 4-5 weeks after treatment. The gist of the method: (§1)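 Visual 0-9 rating vs control (stand, vigor, malformation, size, chlorosis, overall appearance), scored 4-5 wk after spraying. Seeded soil cups were treated preemergence with compound in aqueous acetone, ~0.0156-0.500 kg/ha equivalent.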

The subject of test [2] is ORYSAT (Rice, Tebonnet). As to the kind of experiment: Preemergence herbicidal evaluation. The test is classed as in vivo, Oryza sativa, (L.) Tebonnet. Conditions: rated 4-5 weeks after treatment. The gist of the method: as §1
Test [3] deals with ECHORC (Watergrass (Calif.)). In words: Preemergence weed control under flooded paddy conditions. Format: in vivo, Echinochloa oryzoides. Conditions: rated 3-4 weeks after treatment. The gist of the method:
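Ratings on a 0-9 visual scale cover stand, vigor, malformation, size, chlorosis and overall appearance relative to a control, taken three to four weeks post-treatment. Application was into flood water over freshly sown silt loam at roughly 0.0313 to 0.500 kg/ha.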

Test [4] deals with ECHCG (Barnyardgrass). In words: Postemergence herbicidal evaluation. The test is classed as in vivo, Echinochloa crus-galli. Conditions: for herbicidal rating ECHCG / ECHCG herbicidal rating: postemergence. The gist of the method:
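Scores (0–9) reflect plant stand, vigor, malformation, size, chlorosis and general appearance relative to control, read 4 to 5 weeks after treatment and averaged where tests were repeated. Application: about 0.0156–0.500 kg/ha sprayed at 40 psi onto two-week seedlings.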

Test [5] deals with CYPSE (Flatsedge). In words: Preemergence weed control under flooded paddy conditions. The settings on record: rated 3-4 weeks after treatment. Format: in vivo, Cyperus serotinus. The method in brief: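 Visual injury scored 0-9 against control three to four weeks post-treatment, greenhouse-grown. Application: acetone/water (50/50) solutions dosed directly into flood water (1.5-3 cm over silt loam, planted top 0.5 cm), roughly 0.0313 to 0.500 kg/ha active ingredient.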

SMILES strings stand for the structures.

As to `Cn1c(C(F)(F)F)cc(=O)n(-c2cc(N=C3SCC(=O)N3Cc3ccco3)c(Cl)cc2F)c1=O` [Compound 122, 3-{4-Chloro-2-fluoro-5-[(3-furfuryl-4-oxo-2-thiazolidinylidene)amino]phenyl}-1-methyl-6-(trifluoromethyl)-2,4(1H,3H)-pyrimidinedione], the “Preemergence herbicidal rating CHEAL” value is 9.0 in test [1] (rate 0.0156 kg/ha); 9.0 in test [1] (rate 0.0313 kg/ha); 7.0 in test [1] (rate 0.0625 kg/ha); 9.0 in test [1] (rate 0.1250 kg/ha); 9.0 in test [1] (rate 0.2500 kg/ha); 9.0 in test [1] (rate 0.5000 kg/ha). The “Preemergence herbicidal rating ORYSAT” value in test [2] (rate 0.0156 kg/ha) is 0.0; in test [2] (rate 0.0313 kg/ha), 0.0; in test [2] (rate 0.0625 kg/ha) it was 0.0; in test [2] (rate 0.1250 kg/ha) it was 0.0; in test [2] (rate 0.2500 kg/ha), 0.0; in test [2] (rate 0.5000 kg/ha), 1.0. For the same compound, the “herbicidal effect rating, ECHORC” value in test [3] (0.0313 kg/ha) worked out at 6.0; in test [3] (0.0625 kg/ha), 7.0; in test [3] (0.1250 kg/ha), 7.0; in test [3] (0.2500 kg/ha), 7.0. The “herbicidal rating ECHCG” value in test [4] (rate 0.0156 kg/ha) amounted to 2.0; in test [4] (rate 0.0313 kg/ha) it was 3.0; in test [4] (rate 0.0625 kg/ha), 4.0; in test [4] (rate 0.1250 kg/ha), 5.0. In test [5] (0.2500 kg/ha), the “herbicidal effect rating, CYPSE” value came out at 3.0.

Regarding `CCOC(=O)CN1C(=O)C(Cl)SC1=Nc1cc(-n2c(=O)cc(C(F)(F)F)n(C)c2=O)c(F)cc1Cl` (centres unmarked) [Compound 126, Ethyl 5-chloro-2-{{2-chloro-5-[3,6-dihydro-3-methyl-2,6-dioxo-4-(trifluoromethyl)-1(2H)-pyrimidinyl]-4-fluorophenyl}imino}-4-oxo-3-thiazolidineacetate], the “Preemergence herbicidal rating CHEAL” value in test [1] (rate 0.0625 kg/ha), in test [1] (rate 0.1250 kg/ha), in test [1] (rate 0.2500 kg/ha) and in test [1] (rate 0.5000 kg/ha) was 9.0 each time. The “Preemergence herbicidal rating ORYSAT” value in test [2] (rate 0.0625 kg/ha) was 0.0; in test [2] (rate 0.1250 kg/ha), 0.0; in test [2] (rate 0.2500 kg/ha), 0.0; in test [2] (rate 0.5000 kg/ha), 3.0. Moreover, the “herbicidal effect rating, ECHORC” value in test [3] (0.0313 kg/ha) was found to be 0.0; in test [3] (0.0625 kg/ha), 3.0; in test [3] (0.1250 kg/ha), 6.0; in test [3] (0.2500 kg/ha) it was 7.0. The “herbicidal rating ECHCG” value in test [4] (rate 0.0156 kg/ha), in test [4] (rate 0.0313 kg/ha), in test [4] (rate 0.0625 kg/ha) and in test [4] (rate 0.1250 kg/ha) was 0.0 throughout. For the same compound, the “herbicidal effect rating, CYPSE” value in test [5] (0.0313 kg/ha), in test [5] (0.0625 kg/ha), in test [5] (0.1250 kg/ha) and in test [5] (0.2500 kg/ha) was 0.0 each time.

For `CCOC(=O)C(c1ccc(Cl)cc1)N1C(=O)CSC1=Nc1cc(-n2c(=O)cc(C(F)(F)F)n(C)c2=O)c(F)cc1Cl` (racemic) [Compound 79, Ethyl α-(p-chlorophenyl)-2-{{2-chloro-5-[3,6-dihydro-3-methyl-2,6-dioxo-4-(trifluoromethyl)-1(2H)-pyrimidinyl]-4-fluorophenyl}imino}-4-oxo-3-thiazolidineacetate, DL-], the “Preemergence herbicidal rating CHEAL” value in test [1] (rate 0.0313 kg/ha), in test [1] (rate 0.0625 kg/ha), in test [1] (rate 0.1250 kg/ha) and in test [1] (rate 0.2500 kg/ha) was 9.0 each time. Further, the “Preemergence herbicidal rating ORYSAT” value in test [2] (rate 0.0313 kg/ha) is 0.0; in test [2] (rate 0.0625 kg/ha), 1.0; in test [2] (rate 0.1250 kg/ha), 0.0; in test [2] (rate 0.2500 kg/ha), 1.0. Further, the “ECHORC herbicidal effect rating” value in test [3] (0.0313 kg/ha) is 5.0; in test [3] (0.0625 kg/ha), 6.0; in test [3] (0.1250 kg/ha), 7.0; in test [3] (0.2500 kg/ha), 8.0. Further, the ECHCG herbicidal rating in test [4] (rate 0.0158 kg/ha), in test [4] (rate 0.0315 kg/ha) and in test [4] (rate 0.0630 kg/ha) was 1.0 each time. The “CYPSE herbicidal effect rating” value in test [5] (0.0313 kg/ha) turned out to be 0.0; in test [5] (0.0625 kg/ha) it was 0.0; in test [5] (0.1250 kg/ha), 0.0; in test [5] (0.2500 kg/ha), 9.0.

Take `Cn1c(C(F)(F)F)cc(=O)n(-c2cc(N=C3SCC(=O)N3[C@H](Cc3ccccc3)C(=O)O)c(Cl)cc2F)c1=O` [Compound 69, α-Benzyl-2-{{2-chloro-5-[3,6-dihydro-3-methyl-2,6-dioxo-4-(trifluoromethyl)-1(2H)-pyrimidinyl]-4-fluorophenyl}imino}-4-oxo-3-thiazolidineacetic acid, D-]: the “Preemergence herbicidal rating CHEAL” value in test [1] (rate 0.0156 kg/ha), in test [1] (rate 0.0313 kg/ha), in test [1] (rate 0.0625 kg/ha), in test [1] (rate 0.1250 kg/ha) and in test [1] (rate 0.2500 kg/ha) was 9.0 each time. For the same compound, the “Preemergence herbicidal rating ORYSAT” value in test [2] (rate 0.0156 kg/ha) is 0.0; in test [2] (rate 0.0313 kg/ha), 0.0; in test [2] (rate 0.0625 kg/ha), 0.0; in test [2] (rate 0.1250 kg/ha), 1.0; in test [2] (rate 0.2500 kg/ha), 1.0. For the same compound, the “ECHORC herbicidal effect rating” value in test [3] (0.0313 kg/ha) stood at 0.0; in test [3] (0.0625 kg/ha), 4.0; in test [3] (0.1250 kg/ha), 5.0; in test [3] (0.2500 kg/ha), 7.0. Also, the ECHCG herbicidal rating came out at 2.0 in test [4] (rate 0.0158 kg/ha), 1.0 in test [4] (rate 0.0315 kg/ha) and 4.0 in test [4] (rate 0.0630 kg/ha). For the same compound, the “CYPSE herbicidal effect rating” value stood at 3.0 in test [5] (0.0313 kg/ha), 3.0 in test [5] (0.0625 kg/ha), 9.0 in test [5] (0.1250 kg/ha) and 9.0 in test [5] (0.2500 kg/ha).

Regarding `CCOC(=O)CN1CCSC1=Nc1cc(-n2nc(C)n(C(F)F)c2=O)c(F)cc1Cl` [Compound 36], the “Preemergence herbicidal rating CHEAL” value in test [1] (rate 0.0625 kg/ha) worked out at 0.0; in test [1] (rate 0.1250 kg/ha) it was 9.0; in test [1] (rate 0.2500 kg/ha), 9.0. The “Preemergence herbicidal rating ORYSAT” value in test [2] (rate 0.0625 kg/ha) is 0.0; in test [2] (rate 0.1250 kg/ha), 0.0; in test [2] (rate 0.2500 kg/ha), 4.0. Further, the “Herbicidal rating ECHORC” value in test [3] (0.0313 kg/ha) is listed as 4.0; in test [3] (0.0625 kg/ha) it was 6.0; in test [3] (0.1250 kg/ha) it was 7.0; in test [3] (0.2500 kg/ha) it was 9.0. Also, the entries for the “Postemergence herbicidal rating ECHCG” value in test [4] (Rate 0.0158 kg/ha), in test [4] (Rate 0.0315 kg/ha) and in test [4] (Rate 0.0630 kg/ha) were 0.0, 2.0 and 9.0, respectively. Also, the “Herbicidal rating CYPSE” value in test [5] (0.0313 kg/ha) was determined as 0.0; in test [5] (0.0625 kg/ha), 0.0; in test [5] (0.1250 kg/ha), 2.0; in test [5] (0.2500 kg/ha), 4.0.

These data come from patent US20020137929A1, “1 - (3-heterocyclylphenyl) isothiourea, -isourea, -guanidine and -amidine herbicidal agents” (Intellectual Property Department, BASF Aktiengesellschaft, priority 1998, published 2002).
